biological target: T1, human MCHR1 (Homo sapiens, UniProt Q99705); test: Human MCH receptor 1 (MCHR1) competitive binding assay, [125I]-MCH(4-19), CHO cell membrane fraction; details: test compound 0.1 μM, human MCHR1-expressing CHO cell membrane, 25° C., 1 hr, read-out: Binding inhibition rate (0.1 μM)
T1 construct: expressed in transfected cells; host or cells: CHO cell clone 57 (membrane fraction)
Protocol: Determination of Human MCH Receptor 1 (MCHR1) Competitive Inhibitory Activity of Test Compound Using Binding Assay
Using human MCHR1(=SLC-1 receptor)-expressing CHO cell clone 57 and rat MCHR1-expressing CHO cell clone 44 described in WO01/82925, MCHR1-expressing CHO cellular membrane fractions were prepared by the following method. In phosphate buffered saline (pH 7.4) supplemented with 5 mM EDTA (ethylenediaminetetraacetic acid) were respectively suspended human and rat MCHR1-expressing CHO cells (1×10^8 cells) and centrifuged. Homogenate buffer (10 mL, 10 mM NaHCO3, 5 mM EDTA, pH 7.5, 0.5 mM PMSF (phenylmethylsulfonyl fluoride), 20 mg/L leupeptin, 4 mg/L E-64, 1 mg/L pepstatin A) was added to the pellets of the cells and, using Polytron Homogenizer, the mixture was homogenated. The supernatant obtained after centrifugation at 400×g for 10 min was further centrifuged at 100,000×g for 1 hr to give precipitate of the membrane fraction. The precipitate were suspended in 2 mL of assay buffer [20 mM Tris-HCl (pH 7.5), 5 mM EDTA, 0.5 mM PMSF, 20 mg/L leupeptin, 4 mg/L E-64, 1 mg/L pepstatin A]. The membrane fractions were suspended in assay buffer to a protein concentration of 2 mg/mL, and after dispensing, preserved at −80° C. and used upon thawing each time when in use.
The MCHR1 ligand binding inhibitory activity of the test compound was determined as follows. An MCHR1-expressing CHO cellular membrane fraction (175 μL) diluted with an assay buffer was dispensed to a 96 well polypropylene plate (3363, Corning). DMSO solution (2 μL), 100 μm cold MCH(1-19) diluted with DMSO solution (2 μL), or a test compound solution diluted with DMSO solution to various concentrations (2 μL) was added, and lastly, [^125I]-MCH(4-19) diluted with assay buffer (25 μL) was added to each well. The reaction mixture was reacted at 25° C. for 1 hr with stirring, and the reaction mixture was filtered by suction using a glass filter plate (GF/C, PerkinElmer). The filter was washed 3 times with a wash solution (300 μL, 50 mM Tris-HCl buffer, pH 7.5). The glass filter plate was dried, a liquid scintillator was added at 25 μL/well, and the residual radioactivity was measured by TopCount (PerkinElmer). The binding inhibition rate of the test compound was calculated by the following formula. Binding inhibition (%)=(radioactivity upon addition of test compound and hot MCH−radioactivity upon addition of cold MCH and hot MCH solution)/(radioactivity upon addition of DMSO solution and hot MCH−radioactivity upon addition of cold MCH and hot MCH solution)×100

T1 sequence (Q99705 whole entry): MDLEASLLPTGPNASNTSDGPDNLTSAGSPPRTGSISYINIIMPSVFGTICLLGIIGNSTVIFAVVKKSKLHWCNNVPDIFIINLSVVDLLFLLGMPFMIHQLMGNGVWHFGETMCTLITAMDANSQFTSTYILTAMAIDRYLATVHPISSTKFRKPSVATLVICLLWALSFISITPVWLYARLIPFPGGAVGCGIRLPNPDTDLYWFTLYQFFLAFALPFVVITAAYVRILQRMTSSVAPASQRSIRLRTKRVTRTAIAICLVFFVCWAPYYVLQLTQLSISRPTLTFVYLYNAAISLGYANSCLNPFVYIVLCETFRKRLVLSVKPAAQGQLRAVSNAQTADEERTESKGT

Structure (SMILES) | inhibition at 0.1 µM [%]
Cn1c(CNC2CCS(=O)(=O)CC2)cc2cc(NC(=O)c3ccc(OCC4CC4)cc3)ccc21 [Example 6, 4-(cyclopropylmethoxy)-N-(2-{[(1,1-dioxidotetrahydro-2H-thiopyran-4-yl)amino]methyl}-1-methyl-1H-indol-5-yl)benzamide] | 82
Cn1c(CN[C@H]2CC[C@](C)(O)CC2)cc2cc(NC(=O)c3ccc(OCC4CC4)cc3)ccc21 [Example 12, 4-(cyclopropylmethoxy)-N-(2-{[(trans-4-hydroxy-4-methylcyclohexyl)amino]methyl}-1-methyl-1H-indol-5-yl)benzamide] | 98
Cc1c(NC(=O)c2ccc(OC[C@@H]3CCCO3)cc2)ccc2c1cc(CNCC(C)(C)C)n2C [Example 51, N-(2-{[(2,2-dimethylpropyl)amino]methyl}-1,4-dimethyl-1H-indol-5-yl)-4-[(2S)-tetrahydrofuran-2-ylmethoxy]benzamide] | 92
Cc1c(NC(=O)c2ccc(OCC3CC3)cc2)ccc2cc(CNCC(C)(C)O)[nH]c12 [Example 63, 4-(cyclopropylmethoxy)-N-(2-{[(2-hydroxy-2-methylpropyl)amino]methyl}-7-methyl-1H-indol-6-yl)benzamide] | 98
Cc1c(NC(=O)c2ccc(OCC3CC3)cc2)ccc2cc(CN[C@H]3CC[C@](C)(O)CC3)[nH]c12 [Example 67, 4-(cyclopropylmethoxy)-N-(2-{[(trans-4-hydroxy-4-methylcyclohexyl)amino]methyl}-7-methyl-1H-indol-6-yl)benzamide] | 101

tested on: not given; test: not given; details: not given

Structure (SMILES) | melting point [°C]
Cn1c(CNC2CCS(=O)(=O)CC2)cc2cc(NC(=O)c3ccc(OCC4CC4)cc3)ccc21 [Example 6, 4-(cyclopropylmethoxy)-N-(2-{[(1,1-dioxidotetrahydro-2H-thiopyran-4-yl)amino]methyl}-1-methyl-1H-indol-5-yl)benzamide] | 200 to 201
Cc1c(NC(=O)c2ccc(OC[C@@H]3CCCO3)cc2)ccc2c1cc(CNCC(C)(C)C)n2C [Example 51, N-(2-{[(2,2-dimethylpropyl)amino]methyl}-1,4-dimethyl-1H-indol-5-yl)-4-[(2S)-tetrahydrofuran-2-ylmethoxy]benzamide] | 179
Cc1c(NC(=O)c2ccc(OCC3CC3)cc2)ccc2cc(CNCC(C)(C)O)[nH]c12 [Example 63, 4-(cyclopropylmethoxy)-N-(2-{[(2-hydroxy-2-methylpropyl)amino]methyl}-7-methyl-1H-indol-6-yl)benzamide] | 170
Cc1c(NC(=O)c2ccc(OCC3CC3)cc2)ccc2cc(CN[C@H]3CC[C@](C)(O)CC3)[nH]c12 [Example 67, 4-(cyclopropylmethoxy)-N-(2-{[(trans-4-hydroxy-4-methylcyclohexyl)amino]methyl}-7-methyl-1H-indol-6-yl)benzamide] | 91 to 103
Cc1c(NC(=O)c2ccc(C#CC3(O)CC3)cc2)ccc2cc(CNCC(C)(C)C)n(C)c12 [Example 91, N-(2-{[(2,2-dimethylpropyl)amino]methyl}-1,7-dimethyl-1H-indol-6-yl)-4-[(1-hydroxycyclopropyl)ethynyl]benzamide] | 182 to 183
Cc1c(NC(=O)c2ccc(C#CC3(O)CCC3)cc2)ccc2cc(CNCC(C)C)n(C)c12 [Example 92, 4-[(1-hydroxycyclobutyl)ethynyl]-N-(2-{[(2-methylpropyl)amino]methyl}-1,7-dimethyl-1H-indol-6-yl)benzamide] | 222 to 223
Cc1c(NC(=O)c2ccc(C#CC3(O)CCC3)cc2)ccc2cc(CNCC(C)(C)C)n(C)c12 [Example 93, N-(2-{[(2,2-dimethylpropyl)amino]methyl}-1,7-dimethyl-1H-indol-6-yl)-4-[(1-hydroxycyclobutyl)ethynyl]benzamide] | 232 to 233
Cc1c(NC(=O)c2ccc(C#CC3(O)CCC3)cc2)ccc2cc(CNCC3CCOCC3)n(C)c12 [Example 94, N-(1,7-dimethyl-2-{[(tetrahydro-2H-pyran-4-ylmethyl)amino]methyl}-1H-indol-6-yl)-4-[(1-hydroxycyclobutyl)ethynyl]benzamide] | 202 to 204
Cc1c(CNCC(C)C)[nH]c2c(C)c(NC(=O)c3ccc(OC[C@@H]4CCCO4)cc3)ccc12 [Example 96, N-(2-{[(2-methylpropyl)amino]methyl}-3,7-dimethyl-1H-indol-6-yl)-4-[(2S)-tetrahydrofuran-2-ylmethoxy]benzamide] | 118 to 119
Cc1c(CNCC2CCOCC2)[nH]c2c(C)c(NC(=O)c3ccc(OC[C@@H]4CCCO4)cc3)ccc12 [Example 97, N-(3,7-dimethyl-2-{[(tetrahydro-2H-pyran-4-ylmethyl)amino]methyl}-1H-indol-6-yl)-4-[(2S)-tetrahydrofuran-2-ylmethoxy]benzamide] | 184 to 185
Cc1c(CNCC(C)(C)C)[nH]c2c(C)c(NC(=O)c3ccc(OC[C@@H]4CCCO4)cc3)ccc12 [Example 98, N-(2-{[(2,2-dimethylpropyl)amino]methyl}-3,7-dimethyl-1H-indol-6-yl)-4-[(2S)-tetrahydrofuran-2-ylmethoxy]benzamide] | 178 to 179
Cc1c(CN[C@H]2CC[C@](C)(O)CC2)[nH]c2c(C)c(NC(=O)c3ccc(OC[C@@H]4CCCO4)cc3)ccc12 [Example 99, N-(2-{[(trans-4-hydroxy-4-methylcyclohexyl)amino]methyl}-3,7-dimethyl-1H-indol-6-yl)-4-[(2S)-tetrahydrofuran-2-ylmethoxy]benzamide] | 134 to 135
Cc1c(CNC2CCCC2)[nH]c2c(C)c(NC(=O)c3ccc(OC[C@@H]4CCCO4)cc3)ccc12 [Example 100, N-{2-[(cyclopentylamino)methyl]-3,7-dimethyl-1H-indol-6-yl}-4-[(2S)-tetrahydrofuran-2-ylmethoxy]benzamide] | 107 to 109
Cc1c(CNCC(C)(C)O)[nH]c2c(C)c(NC(=O)c3ccc(OC[C@@H]4CCCO4)cc3F)ccc12 [Example 101, 2-fluoro-N-(2-{[(2-hydroxy-2-methylpropyl)amino]methyl}-3,7-dimethyl-1H-indol-6-yl)-4-[(2S)-tetrahydrofuran-2-ylmethoxy]benzamide] | 151 to 152
Cc1c(CN[C@H]2CC[C@](C)(O)CC2)[nH]c2c(C)c(NC(=O)c3ccc(OC[C@@H]4CCCO4)cc3F)ccc12 [Example 102, 2-fluoro-N-(2-{[(trans-4-hydroxy-4-methylcyclohexyl)amino]methyl}-3,7-dimethyl-1H-indol-6-yl)-4-[(2S)-tetrahydrofuran-2-ylmethoxy]benzamide] | 177 to 178
Cc1c(CNCC(C)C)[nH]c2c(F)c(NC(=O)c3ccc(OC[C@@H]4CCCO4)cc3)ccc12 [Example 104, N-(7-fluoro-2-{[(2-methylpropyl)amino]methyl}-3-methyl-1H-indol-6-yl)-4-[(2S)-tetrahydrofuran-2-ylmethoxy]benzamide] | 134 to 135
Cc1c(CNCC(C)C)n(C)c2c(C)c(NC(=O)c3ccc(OC[C@@H]4CCCO4)cc3)ccc12 [Example 106, N-(2-{[(2-methylpropyl)amino]methyl}-1,3,7-trimethyl-1H-indol-6-yl)-4-[(2S)-tetrahydrofuran-2-ylmethoxy]benzamide] | 171 to 172
Cc1c(CNCC2CCOCC2)n(C)c2c(C)c(NC(=O)c3ccc(OC[C@@H]4CCCO4)cc3)ccc12 [Example 107, 4-[(2S)-tetrahydrofuran-2-ylmethoxy]-N-(1,3,7-trimethyl-2-{[(tetrahydro-2H-pyran-4-ylmethyl)amino]methyl}-1H-indol-6-yl)benzamide] | 173 to 174
Cc1c(CNCC(C)(C)O)n(C)c2c(C)c(NC(=O)c3ccc(OC[C@@H]4CCCO4)cc3)ccc12 [Example 108, N-(2-{[(2-hydroxy-2-methylpropyl)amino]methyl}-1,3,7-trimethyl-1H-indol-6-yl)-4-[(2S)-tetrahydrofuran-2-ylmethoxy]benzamide] | 186 to 188
Cc1c(CN[C@H]2CC[C@](C)(O)CC2)n(C)c2c(C)c(NC(=O)c3ccc(OC[C@@H]4CCCO4)cc3)ccc12 [Example 109, N-(2-{[(trans-4-hydroxy-4-methylcyclohexyl)amino]methyl}-1,3,7-trimethyl-1H-indol-6-yl)-4-[(2S)-tetrahydrofuran-2-ylmethoxy]benzamide] | 183 to 184
Cc1c(CNCC(C)(C)O)n(C)c2c(C)c(NC(=O)c3ccc(OC[C@@H]4CCCO4)cc3F)ccc12 [Example 111, 2-fluoro-N-(2-{[(2-hydroxy-2-methylpropyl)amino]methyl}-1,3,7-trimethyl-1H-indol-6-yl)-4-[(2S)-tetrahydrofuran-2-ylmethoxy]benzamide] | 131 to 132
Cc1c(CN[C@H]2CC[C@](C)(O)CC2)n(C)c2c(F)c(NC(=O)c3ccc(OC[C@@H]4CCCO4)cc3)ccc12 [Example 112, N-(7-fluoro-2-{[(trans-4-hydroxy-4-methylcyclohexyl)amino]methyl}-1,3-dimethyl-1H-indol-6-yl)-4-[(2S)-tetrahydrofuran-2-ylmethoxy]benzamide] | 122 to 124
Cc1c(CNCC2CCOCC2)n(C)c2c(F)c(NC(=O)c3ccc(OC[C@@H]4CCCO4)cc3)ccc12 [Example 113, N-(7-fluoro-1,3-dimethyl-2-{[(tetrahydro-2H-pyran-4-ylmethyl)amino]methyl}-1H-indol-6-yl)-4-[(2S)-tetrahydrofuran-2-ylmethoxy]benzamide] | 132 to 134
